Results published in PubChem BioAssay AID248 (DTP/NCI, 2004).
Values joined by “and” are separate entries in the source; they are usually repeats but may differ in a detail not shown here. Identical values can stand only once. Toxic doses and inconclusive results are not listed.

System: L1210 leukemia ip in BDF1 mice, survival T/C
Test: NCI In Vivo Anticancer Drug Screen. Data for tumor model L1210 Leukemia (intraperitoneal) in B6D2F1 (BDF1) mice
Details: higher = longer survival
How it was run: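 Tumor cells were implanted, animals were treated, and survival was followed. The result divides the treated measurement by the vehicle-control measurement.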

[1] = endpoint: mean survival time, dose: 50.0 mg/kg/injection, schedule: Q01DX001 (ip), vehicle: saline
[2] = endpoint: mean survival time, dose: 100.0 mg/kg/injection, schedule: Q01DX001 (ip), vehicle: saline
[3] = endpoint: mean survival time, dose: 100.0 mg/kg/injection, schedule: Q04DX002 (ip), vehicle: saline with Tween-80
[4] = endpoint: mean survival time, dose: 200.0 mg/kg/injection, schedule: Q04DX002 (ip), vehicle: saline with Tween-80
[5] = endpoint: mean survival time, dose: 200.0 mg/kg/injection, schedule: Q01DX001 (ip), vehicle: saline
[6] = endpoint: mean survival time, dose: 400.0 mg/kg/injection, schedule: Q01DX001 (ip), vehicle: saline
[7] = endpoint: mean survival time, dose: 50.0 mg/kg/injection, schedule: Q01DX009 (ip), vehicle: Klucel (hydroxypropylcellulose) (HPC)
[8] = endpoint: mean survival time, dose: 100.0 mg/kg/injection, schedule: Q01DX009 (ip), vehicle: saline with Tween-80
[9] = endpoint: mean survival time, dose: 200.0 mg/kg/injection, schedule: Q01DX009 (ip), vehicle: saline with Tween-80
[10] = endpoint: mean survival time, dose: 400.0 mg/kg/injection, schedule: Q04DX002 (ip), vehicle: saline with Tween-80

CNc1nc(N)nc(Nc2ccc(I)cc2)c1N=O
T/C (endpoint: mean survival time, dose: 100.0 mg/kg/injection, schedule: Q01DX001 (ip), vehicle: carboxymethylcellulose (CMC)): 105 % of control | T/C (endpoint: mean survival time, dose: 100.0 mg/kg/injection, schedule: Q01DX009 (ip), vehicle: acetone): 107 % of control | T/C (endpoint: mean survival time, dose: 100.0 mg/kg/injection, schedule: Q04DX003 (ip), vehicle: acetone): 115 % of control | T/C (endpoint: mean survival time, dose: 200.0 mg/kg/injection, schedule: Q01DX001 (ip), vehicle: carboxymethylcellulose (CMC)): 110 % of control | T/C (endpoint: mean survival time, dose: 200.0 mg/kg/injection, schedule: Q01DX009 (ip), vehicle: acetone): 107 % of control | T/C (endpoint: mean survival time, dose: 200.0 mg/kg/injection, schedule: Q04DX003 (ip), vehicle: acetone): 105 % of control | T/C (endpoint: mean survival time, dose: 400.0 mg/kg/injection, schedule: Q01DX001 (ip), vehicle: carboxymethylcellulose (CMC)): 100 % of control | T/C (endpoint: mean survival time, dose: 400.0 mg/kg/injection, schedule: Q01DX009 (ip), vehicle: acetone): 98 % of control | T/C (endpoint: mean survival time, dose: 400.0 mg/kg/injection, schedule: Q04DX003 (ip), vehicle: acetone): 98 % of control

O=c1cc2ccccc2c(O)[nH]1
T/C (endpoint: mean survival time, dose: 25.0 mg/kg/injection, schedule: Q01DX001 (ip), vehicle: saline): 107 % of control | T/C [1]: 111 % of control | T/C (endpoint: mean survival time, dose: 100.0 mg/kg/injection, schedule: Q01DX001 (ip), vehicle: Klucel (hydroxypropylcellulose) (HPC)): 100 % of control | T/C [2]: 114 % of control

O=C1C2C3CCC(O3)C2C(=O)N1CCO (configuration not stated)
T/C (endpoint: mean survival time, dose: 100.0 mg/kg/injection, schedule: Q04DX002 (ip), vehicle: saline): 109 % of control | T/C (endpoint: mean survival time, dose: 200.0 mg/kg/injection, schedule: Q04DX002 (ip), vehicle: saline): 106 % of control | T/C (endpoint: mean survival time, dose: 400.0 mg/kg/injection, schedule: Q04DX002 (ip), vehicle: saline): 98 % of control

CCCCCCC1CCC(CCCCCCCC(=O)N2CCN(C)CC2)C(C/C=C/CCCCCCCC(=O)N2CCN(C)CC2)C1CCCCC (configuration not stated)
T/C (endpoint: mean survival time, dose: 75.0 mg/kg/injection, schedule: Q01DX001 (ip), vehicle: saline): 94 % of control | T/C (endpoint: mean survival time, dose: 150.0 mg/kg/injection, schedule: Q01DX001 (ip), vehicle: saline): 103 % of control | T/C (endpoint: mean survival time, dose: 300.0 mg/kg/injection, schedule: Q01DX001 (ip), vehicle: saline): 95 % of control

CS(=O)(=O)Oc1ccccc1OS(C)(=O)=O
T/C [3]: 91 % of control | T/C [4]: 107 % of control

O=C(O)C1CCCCN1[N+](=O)[O-] (configuration not stated)
T/C [2]: 96 % of control | T/C [5]: 100 % of control | T/C [6]: 100 % of control

CCCCCCCCC1NC1CCCCCCCC (configuration not stated)
T/C (endpoint: mean survival time, dose: 25.0 mg/kg/injection, schedule: Q04DX002 (ip), vehicle: saline with Tween-80): 98 % of control | T/C (endpoint: mean survival time, dose: 50.0 mg/kg/injection, schedule: Q04DX002 (ip), vehicle: saline with Tween-80): 88 % of control | T/C (endpoint: mean survival time, dose: 100.0 mg/kg/injection, schedule: Q04DX002 (ip), vehicle: other): 100 % of control | T/C [3]: 100 % of control | T/C (endpoint: mean survival time, dose: 200.0 mg/kg/injection, schedule: Q04DX002 (ip), vehicle: other): 96 % of control

O=C1CCC(=O)N1[N+](=O)[O-]
T/C [1]: 95 % of control and 89 % of control | T/C [2]: 97 % of control and 101 % of control | T/C [5]: 103 % of control and 107 % of control

O=C(Nc1cccc(Cl)c1)c1ccc(Cl)c(Cl)c1
T/C (endpoint: mean survival time, dose: 100.0 mg/kg/injection, schedule: Q04DX002 (ip), vehicle: Klucel (hydroxypropylcellulose) (HPC)): 110 % of control | T/C (endpoint: mean survival time, dose: 200.0 mg/kg/injection, schedule: Q04DX002 (ip), vehicle: Klucel (hydroxypropylcellulose) (HPC)): 113 % of control | T/C (endpoint: mean survival time, dose: 400.0 mg/kg/injection, schedule: Q04DX002 (ip), vehicle: Klucel (hydroxypropylcellulose) (HPC)): 93 % of control

CCCCCCC(C(C(C)=O)C(C)=O)C(C(C)=O)C(C)=O
T/C (endpoint: mean survival time, dose: 100.0 mg/kg/injection, schedule: Q04DX003 (ip), vehicle: saline with Tween-80): 91 % of control | T/C (endpoint: mean survival time, dose: 200.0 mg/kg/injection, schedule: Q04DX003 (ip), vehicle: saline with Tween-80): 93 % of control

O=[N+]([O-])c1cccc(OCCCOc2ccccc2)c1
T/C (endpoint: mean survival time, dose: 100.0 mg/kg/injection, schedule: Q01DX009 (ip), vehicle: other): 100 % of control | T/C (endpoint: mean survival time, dose: 200.0 mg/kg/injection, schedule: Q01DX009 (ip), vehicle: other): 92 % of control | T/C (endpoint: mean survival time, dose: 400.0 mg/kg/injection, schedule: Q01DX009 (ip), vehicle: other): 103 % of control

Cn1c(=O)c2[nH]c(CCC3CCCC3)nc2n(C)c1=O
T/C [1]: 98 % of control | T/C [2]: 96 % of control | T/C [5]: 96 % of control | T/C [6]: 101 % of control

Cc1cc(NC(=O)Nc2cc(Cl)ccc2C)no1
T/C (endpoint: mean survival time, dose: 12.5 mg/kg/injection, schedule: Q01DX009 (ip), vehicle: Klucel (hydroxypropylcellulose) (HPC)): 95 % of control | T/C (endpoint: mean survival time, dose: 25.0 mg/kg/injection, schedule: Q01DX009 (ip), vehicle: Klucel (hydroxypropylcellulose) (HPC)): 106 % of control | T/C [7]: 98 % of control

CCCN(C(=O)c1cccc([N+](=O)[O-])c1)C(c1ccco1)P(=O)(c1ccccc1)c1ccccc1 (configuration not stated)
T/C (endpoint: mean survival time, dose: 50.0 mg/kg/injection, schedule: Q01DX001 (ip), vehicle: saline with Tween-80): 101 % of control | T/C (endpoint: mean survival time, dose: 100.0 mg/kg/injection, schedule: Q01DX001 (ip), vehicle: saline with Tween-80): 101 % of control | T/C [8]: 100 % of control and 90 % of control | T/C [3]: 98 % of control | T/C (endpoint: mean survival time, dose: 200.0 mg/kg/injection, schedule: Q01DX001 (ip), vehicle: saline with Tween-80): 106 % of control | T/C [9]: 87 % of control | T/C [4]: 102 % of control | T/C [10]: 93 % of control and 88 % of control

CCOC(=O)c1[nH]c(C)c(C(=O)OCC)c1C
T/C [7]: 95 % of control | T/C (endpoint: mean survival time, dose: 100.0 mg/kg/injection, schedule: Q01DX009 (ip), vehicle: Klucel (hydroxypropylcellulose) (HPC)): 95 % of control | T/C [3]: 99 % of control | T/C (endpoint: mean survival time, dose: 200.0 mg/kg/injection, schedule: Q01DX009 (ip), vehicle: Klucel (hydroxypropylcellulose) (HPC)): 103 % of control | T/C [4]: 102 % of control | T/C [10]: 102 % of control | T/C (endpoint: median survival time, dose: 10.0 mg/kg/injection, schedule: Q04DX002 (ip), vehicle: Klucel (hydroxypropylcellulose) (HPC)): 100 % of control | T/C (endpoint: median survival time, dose: 200.0 mg/kg/injection, schedule: Q04DX002 (ip), vehicle: Klucel (hydroxypropylcellulose) (HPC)): 89 % of control | T/C (endpoint: median survival time, dose: 400.0 mg/kg/injection, schedule: Q04DX002 (ip), vehicle: Klucel (hydroxypropylcellulose) (HPC)): 107 % of control

NS(=O)(=O)c1ccc(N=Nc2nc3[nH]cnc(=S)c3[nH]2)cc1
T/C (endpoint: mean survival time, dose: 8.0 mg/kg/injection, schedule: Q01DX009 (ip), vehicle: saline): 116 % of control | T/C (endpoint: mean survival time, dose: 15.0 mg/kg/injection, schedule: Q01DX009 (ip), vehicle: saline): 121 % of control | T/C (endpoint: mean survival time, dose: 62.5 mg/kg/injection, schedule: Q01DX015 (ip), vehicle: saline): 115 % of control | T/C (endpoint: mean survival time, dose: 125.0 mg/kg/injection, schedule: Q01DX015 (ip), vehicle: saline): 121 % of control | T/C (endpoint: mean survival time, dose: 250.0 mg/kg/injection, schedule: Q01DX009 (ip), vehicle: saline): 104 % of control | T/C (endpoint: mean survival time, dose: 250.0 mg/kg/injection, schedule: Q01DX015 (ip), vehicle: saline): 153 % of control

CC(=O)Nc1ccc(S(N)(=O)=O)cn1
T/C (endpoint: mean survival time, dose: 100.0 mg/kg/injection, schedule: Q04DX003 (ip), vehicle: saline): 102 % of control | T/C (endpoint: mean survival time, dose: 200.0 mg/kg/injection, schedule: Q04DX003 (ip), vehicle: saline): 89 % of control | T/C (endpoint: mean survival time, dose: 400.0 mg/kg/injection, schedule: Q04DX003 (ip), vehicle: saline): 86 % of control

O=c1[nH]c(/C=C/c2ccc(Cl)cc2)nc(O)c1-c1ccc(Cl)cc1
T/C [2]: 104 % of control | T/C (endpoint: mean survival time, dose: 100.0 mg/kg/injection, schedule: Q04DX003 (ip), vehicle: Klucel (hydroxypropylcellulose) (HPC)): 102 % of control | T/C [5]: 98 % of control | T/C (endpoint: mean survival time, dose: 200.0 mg/kg/injection, schedule: Q04DX003 (ip), vehicle: Klucel (hydroxypropylcellulose) (HPC)): 96 % of control | T/C [6]: 93 % of control | T/C (endpoint: mean survival time, dose: 400.0 mg/kg/injection, schedule: Q04DX003 (ip), vehicle: Klucel (hydroxypropylcellulose) (HPC)): 98 % of control

NC(N)=N/N=C/c1ccc2c(c1)CCC2
T/C (endpoint: mean survival time, dose: 12.5 mg/kg/injection, schedule: Q04DX003 (ip), vehicle: saline): 101 % of control | T/C (endpoint: mean survival time, dose: 25.0 mg/kg/injection, schedule: Q04DX003 (ip), vehicle: saline): 97 % of control | T/C (endpoint: mean survival time, dose: 50.0 mg/kg/injection, schedule: Q04DX003 (ip), vehicle: saline): 97 % of control

N#C/C(=C\C1CCC(Cl)C(Cl)C1)C1CCC([N+](=O)[O-])CC1 (configuration not stated)
T/C [3]: 91 % of control | T/C [10]: 91 % of control

FC(F)(F)c1nc2nc(Cl)c(Cl)nc2n1CCCN1CCOCC1
T/C [8]: 117 % of control | T/C [9]: 107 % of control | T/C (endpoint: mean survival time, dose: 400.0 mg/kg/injection, schedule: Q01DX009 (ip), vehicle: saline with Tween-80): 103 % of control
